Common to all, as to experiment: MIC, doubling dilution in 96-well microtitre plate
Common to all, as to type: cell-based

The subject of test [1] is Streptococcus bovis NCTC 11436. As to the method:
(§1) The compound was tested as follows. […] The wells were inoculated with organism ([…] of medium containing 10^6 cfu/mL) and the plates were incubated at 37° C. overnight. Where growth of organism occurred this was observed as a small button when viewed from underneath the plate. The MIC was determined as the lowest concentration inhibiting growth.

Test [2] relates to Bacillus polymyxa. As to the method: as §1
In test [3] the test system is Enterococcus faecalis NCTC 5957. As to the method:
as §1

Test [4] relates to Enterococcus faecium. The procedure: as §1
The subject of test [5] is Moraxella catarrhalis. The procedure:
as §1

Test [6] has as its system Micrococcus roseus. As to the method:
as §1

Test [7] deals with Staphylococcus aureus NCTC 6571. As to the method:
as §1

Test [8] relates to Bacillus megarerium. As to the method: as §1
The test system of test [9] is Staphylococcus epidermidis NCTC 11047. As to the method: as §1
In test [10] the test system is Staphylococcus aureus (MRSA) 96-7475. As to the method:
as §1

The test system of test [11] is Bacillus subtilis. The procedure: as §1
Test [12] concerns Bacillus cereus. As to the method: as §1
Test [13] has as its system Micrococcus luteus. The procedure:
as §1

As for `CC(C)(C)c1cc(C=NN=C(N)c2cc[n+]([O-])cc2)c(O)c(C(C)(C)C)c1` [Compound 4PYOcq], the minimal inhibitory concentration (MIC) in [1] lay within 64 to 128 µg/mL; in test [2] it was 1 to 2 µg/mL; in test [3], 64 to 128 µg/mL; in test [4] (Enterococcus faecium ATCC 10541), 32 to 64 µg/mL; in test [4] (Enterococcus faecium NCTC 7171) it was 32 to 64 µg/mL; in test [5], 32 to 64 µg/mL. The minimum inhibitory concentration (MIC) in test [6] lay in the range of 1 to 2 µg/mL; in test [7], 16 to 32 µg/mL; in test [8], 32 to 64 µg/mL; in test [9] it was 32 to 64 µg/mL; in test [10] it was 64 to 128 µg/mL; in test [11] it was 64 to 128 µg/mL. Besides, the figures for the MIC in test [12] and in test [13] were 16 to 32 µg/mL and 8 to 16 µg/mL, respectively.

By MIC is commonly meant the smallest concentration in the dilution series that meets the test's criterion for growth inhibition.

The record behind these values is patent publication US20080096894A1, “Anti-Bacterial Compounds” (ASTON UNIVERSITY, priority 2005, published 2008).
